{
  "source": "patent US12622906B2",
  "about": "“Treatment and prognosis of pancreatic cancer” (Cambridge Enterprise Limited, priority 2019, dated 2026)",
  "key": {"PDAC cells": {"system": "PDAC cells", "experiment": "3D in vitro assay of invasion, PDAC cells co-cultured with BMDM (IncuCyte Zoom, NeuroTrack)", "assay_type": "cell-based, murine", "conditions": "3D co-culture of PDAC cells with BMDM; pre-treatment 24 hours or treatment at time of co-culture", "procedure": "Cell-matrix cultures were performed by seeding PDAC cells onto wells pre-coated with 1 mg/mL Matrix Growth Factor Reduced Matrigel (Becton Dickinson). To observe cell invasion through Matrigel, plates were placed into IncuCyte Zoom (Essen Bioscience) with the software set to capture images every 3 hours in green and fluorescent protein (GFP/RFP)/Bright Field (or Phase Contrast).\nFor co-cultures, mCherry-labelled PDAC cells were mixed 1:1 with ZsGreen-labelled macrophages, typically primary BMDM unless otherwise noted. Co-cultures were seeded and kept as subconfluent cultures for 48-96 hours in either 2D or 3D conditions.\nTo quantify the invasive capacity of PDAC cells, 3D in vitro invasion assays were quantified using software provided by Essen Bioscience, NeuroTrack. […] Unlike high-content imaging systems, which require fixation, staining, and endpoint analysis of cells, the algorithm measured live-cell dynamics. […] Once parameters were defined, they were applied to all 3D in vitro invasion assays for quantification.\nThe NeuroTrack software measures fluorescent-labelled cells. […] In this method, only PDAC cells that have invaded out of 3D structures are counted if they have a fluorescent mCherry label present in their nucleus. Data is plotted with number of nuclei counted on the y-axis and time on the x-axis. […]"}, "CCR1 expression": {"system": "CCR1 expression", "experiment": "CCR1 expression in PDAC cells after prolonged co-culture with BMDM (qRT-PCR, flow cytometry)", "assay_type": "cell-based, murine", "conditions": "PDAC cells co-cultured with BMDM; by qRT-PCR and flow cytometry", "procedure": "Culture conditions for PDAC and BMDM cell lines used in this study are described above. For co-cultures, mCherry-labelled PDAC cells were mixed 1:1 with ZsGreen-labelled macrophages, typically primary BMDM unless otherwise noted. Co-cultures were seeded and kept as subconfluent cultures for 48-96 hours in either 2D or 3D conditions.\nTotal RNA was isolated and purified from cells using Qiazol reagent and miRNeasy mini kit (Qiagen). cDNA was synthesized using the High Capacity RNA-to-cDNA kit (ABI) according to manufacturer's instructions. qRT-PCR was performed using Power SYBR Green PCR Master Mix (ABI) on the TaqMan 7900 (ABI). Relative expression levels were defined using the ΔΔCt method and normalizing to 18S rRNA and/or GAPDH.\nPre-treatment: PDAC cells and BMDM were pre-treated with CCR1 antagonists 24 hours prior to the start of the experiment, harvested and then seeded according to the co-culture method previously described for the duration of the experiment.\nTreatment at time of co-culture: PDAC cells and BMDM were seeded according to the co-culture method as previously described and CCR1 antagonists were treated at the time of seeding and allowed to incubate for the duration of the experiment. […]"}, "[1]": {"system": "fibroblasts and macrophages", "experiment": "Viability of non-cancerous cells treated with CCR1 antagonist", "assay_type": "cell-based", "conditions": "compared with vehicle control"}},
  "data": [
    {"smiles": "CC[N@+]1(C/C2=C/CCCCCC2)CC[C@@H](NC(=O)C2c3cc(Cl)ccc3Oc3ccc(Cl)cc32)CC1.[I-]", "note": "[J113863, 1,4-cis-1-(1-cycloocten-1-ylmethyl)-4-[[(2,7-dichloro-9H-xanthen-9-yl)carbonyl]amino]-1-ethylpiperidinium iodide]", "values": [
      {"measurement": "macrophage-mediated pro-invasive phenotype of PDAC cells", "setting": "PDAC cells", "result": "striking ability to rein in the effect of macrophages to confer functional pro-invasive abilities to PDAC cells"},
      {"measurement": "induction of CCR1 expression due to prolonged co-culture", "setting": "CCR1 expression", "result": "blunting the induction of CCR1 expression"}
    ]},
    {"smiles": "C[C@@H]1CN(Cc2ccc(F)cc2)CCN1C(=O)COc1ccc(Cl)cc1NC(N)=O", "note": "[BX-471, (2R)-1-[[2-[(Aminocarbonyl)amino]-4-chlorophenoxy]acetyl]-4-[(4-fluorophenyl)methyl]-2-methylpiperazine]", "values": [
      {"measurement": "macrophage-mediated pro-invasive phenotype of PDAC cells", "setting": "PDAC cells", "result": "striking ability to rein in the effect of macrophages to confer functional pro-invasive abilities to PDAC cells"},
      {"measurement": "viability of fibroblasts and macrophages", "setting": "[1]", "result": "just as viable as cell treated with vehicle control"}
    ]}
  ]
}
